# Experimental data reported in patent US12728132B2, “Inhibitors of the peptidyl-prolyl cis/trans isomerase (PIN1), combinations and uses thereof” (DANA-FARBER CANCER INSTITUTE, INC., priority 2021, dated 2026).
# *1 amine or outer side, *2 acyl side, *3 side chain or, on linkers, in order; H or OH if unused. Where a SMILES comes first, the peptide text is derived from it. Where no end group is shown, it is not given here. [ ]: non-standard residue; d: D form. The star is where a group is joined. Pro(13C,15N) = carbon and nitrogen isotope labeled proline, O=[13C]([13C@@H]1[13CH2][13CH2][13CH2][15N]1[*:1])[*:2]; pS = N[C@@H](COP(=O)(O)O)C(=O)O; Cbz = O=C(OCc1ccccc1)*
# How the values were obtained:
# [1] = system: K14cre; p53^wt/f, Brca1^wt/f BT3 tumors; assay: Survival and tumor growth, FVB mice bearing BT3 tumors; assay type: in vivo; details: n=10 mice per group
# Description: (§1) All animal experiments were approved by the IACUC of the Beth Israel Deaconess Medical Center. Maximum permitted the longest dimension of tumors was 20 mm. Pieces from breast tumors generated in K14cre; p53^f/f; Brca1^f/f or K14cre; p53^wt/f; Brca1^wt/f female mice were transplanted into the mammary pad of 6-week-old FVB female mice. For survival studies, treatments were started once the tumors reached 3-5 mm in diameter and continued until mice were symptomatic or tumors reached 20 mm in any direction, at which point mice were euthanized. For time point analysis, mice were sacrificed two weeks post-treatment initiation. Control and anti-PD-L1 antibody (clone 29E.2A3) treatments were conducted by intraperitoneal injection with a dosage of 200 μg per mouse every three days. sulfopin treatment was given by intraperitoneal injection with a dosage of 60 mg/kg (7 days/week), abemaciclib treatment was given by oral gavage with a dosage of 100 mg/kg (7 days/week), or drug combinations in which each compound was administered at the same dose and scheduled as a single agent. Tumor sizes were measured every three days by caliper after implantation and tumor volume was calculated by the modified ellipsoidal formula: tumor volume=½length×width^2. The investigators were not blinded to allocation during experiments and outcome assessment.
# Pin1 in MDA-MB-231 cells = assay: Immunoblot of Pin1 inhibitor-induced Pin1 degradation with proteasome inhibitors; assay type: cell-based, human; details: MDA-MB-231, AApin 3 days; 10 μM MG132 or 1 μM bortezomib last 12 hrs
# Description: For IB analysis, cells were lysed in RIPA buffer (Thermo) supplemented with protease inhibitors (Sigma) and phosphatase inhibitors (Sigma). Protein concentrations were measured using Protein Assay Dye Reagent (Bio-Rad) and a Beckman Coulter. Equal amounts of protein were resolved by SDS-PAGE and probed with indicated antibodies. For immunoprecipitation analysis, cells were lysed in IP lysis buffer (Thermo) and pre-cleared by Mouse IgG-Agarose (Sigma) for 1 hour at 4° C. and then incubated with anti-Flag M2-Agarose (Sigma) for 2 hours at 4° C. The agaroses were washed four times with IP lysis buffer and boiled in standard Laemmli-Buffer with 5% final concentration of β-mercaptoethanol before being resolved by SDS-PAGE and immunoblotted with indicated antibodies.
# Exploration of the intrinsic upstream regulators that could affect Pin1 protein stability was then sought.
# [2] = system: K14cre; Brca1^+/−; p53^−/−-TNBC; assay: Survival until mandatory euthanasia, syngeneic FVB/N TNBC model with or without anti-PD-L1; assay type: in vivo; details: syngeneic FVB/N mice, time to mandatory euthanasia (tumor size 2 cm)
# Description: All animal experiments were approved by the IACUC of the Beth Israel Deaconess Medical Center. Maximum permitted the longest dimension of tumors was 20 mm. Pieces from breast tumors generated in K14cre; p53^f/f; Brca1^f/f or K14cre; p53^wt/f; Brca1^wt/f female mice were transplanted into the mammary pad of 6-week-old FVB female mice. For survival studies, treatments were started once the tumors reached 3-5 mm in diameter and continued until mice were symptomatic or tumors reached 20 mm in any direction, at which point mice were euthanized. For time point analysis, mice were sacrificed two weeks post-treatment initiation. […] Tumor sizes were measured every three days by caliper after implantation and tumor volume was calculated by the modified ellipsoidal formula: tumor volume=½length×width^2. […]
# A total of 86 FVB/N mice were grafted syngeneically with the K14cre; Brca1^+/−; p53″/tumors. […] Time to mandatory euthanasia (tumor size 2 cm) was recorded. […] Statistical significance was calculated using a two-sided log-rank test.
# [3] = system: K14cre; p53^wt/f; Brca1^wt/f tumors; assay: Survival and tumor growth, Brca1-proficient immunocompetent TNBC mouse model; assay type: in vivo; details: mice bearing K14cre, n=10 per group
# Description: as §1
# [4] = system: K14cre; p53^f/f; Brca1^f/f tumors; assay: Survival and tumor growth, Brca1-deficient immunocompetent TNBC mouse model; assay type: in vivo; details: mice bearing K14cre, n=6 per group
# Description: as §1
# TNBC = details: single agents; cited from earlier work
# Pin1 [5] = target: T1, Pin1 (Homo sapiens, UniProt Q13526); assay: NMR titration of Cdh1 phosphopeptide with Pin1; assay type: binding; details: NMR chemical shift perturbation, pH 6.6, 25° C.
# T1 sequence (Q13526 whole entry, the tested form may be a part): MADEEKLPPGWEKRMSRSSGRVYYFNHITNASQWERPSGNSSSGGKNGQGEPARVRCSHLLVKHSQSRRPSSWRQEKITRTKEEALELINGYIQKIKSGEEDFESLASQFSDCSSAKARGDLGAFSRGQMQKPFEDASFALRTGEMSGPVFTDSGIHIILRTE
# Description: All NMR experiments were acquired on Bruker NEO 600 MHz spectrometer equipped with a TCI cryoprobe at 25° C. 0.1 mM ^13C, ^15N-enriched Pin1 sample dissolved in pH 6.6 buffer made-up of 20 mM Potassium Phosphate, 100 mM NaSO4 and 10% D2O was used to study peptide interaction. NMR assignments of Pin1 were taken from the BMRB database (accession number 27579) and confirmed using 3D-HNCA experiment. Synthetic peptides Cdh1-pS163 (comprised of Cdh1 residues 161-183 with phosphorylated Ser163 and isotope labeled Pro164, LR (pS)P(^13C, ^15N) […]) (SEQ ID NO: 27). were purchased from Pepmic. A systematic titration between Pin1 and phosphopeptide was performed by acquiring 2D-HSQC spectra. The absolute average chemical shift perturbation was calculated by using an equation, [(A8H2+ (A8N/5) 2)/2]½, available in software NMRFAM Sparky version 1.414.
# Pin1 [6] = target: T1, Pin1; assay: Proline isomerization study by 13C-HSQC NMR; assay type: biochemical
# Description: Commercially synthesized specific ^13C, ^15N-P164 labeled Cdh1 phosphopeptide was used to facilitate direct quantitative determination of the cis and trans proline populations. The strong ^13C-HSQC peaks originating from Pro164 can be easily distinguished from the weak peaks due to ~1% natural abundance ^13C present in the rest of the peptide. […] Based on the interpretation of the chemical shifts, the major peaks were assigned as trans isomer and the minor peaks were assigned as cis isomer (Schubert et al. J Biomol NMR 24, 149-154 (2002)). The proline resonance assignments were further confirmed using a 2D-^13C-HSQCTOCSY experiment while no attempts were made to stereospecifically assign proton resonances, thus the assignment of HB2 and HB3, HG2 and HG3, and HD2 and HD3 are interchangeable. 58 μM free peptide and its complex with a 4-fold molar excess of Pin1, dissolved in the above-mentioned NMR buffer were used to estimate the cis and trans isomer populations at 25° C.
# MCF-7 cells = assay: Time-lapse single-cell tracking with APC-degron reporter; assay type: cell-based, human; details: single living cells tracked, asynchronous MCF-7
# Description: MCF-7 cells were stably expressed with mCherry-Geminin (1-110) and a histone H2B-Turquoise. Cells were then plated 24 hours before starting the microscope acquisition. Pin1 inhibitors or CDK4/6 inhibitors were added in the medium and imaged using a Nikon Eclipse TE-2000 inverted microscope with a 10× Plan Apo objective and a Hammamatsu Orca ER camera, equipped with environmental chamber controlling temperature, atmosphere (5% CO2) and humidity. Images were acquired every 30 min using the MetaMorph Software. For each condition filmed, 4 different fields were selected.
# p53Cinema single cell analysis package was used for semiautomatic tracking of individual cells in live cell imaging datasets as described previously (Reyes et al., Mol Cell 2018; 71:581-91 e5). Tracking data were then used to quantify intensity of fluorescent reporters from background subtracted images by averaging 10 pixels within the cell nucleus. Cells were tracked using only information about a constitutively expressed nuclear marker, such as H2B-Turquoise, and were thus blind to the dynamics of molecular players of interest, such as mCherry-Geminin. Only cells that remained within the field of view throughout the entire duration of the experiment were considered for downstream analyses. […] S/G2 durations were calculated by the time that cells spent in S/G2 phase after drugs were added.
# [7] = system: TNBC patient-derived xenograft (TM00096); assay: In vivo therapy for TNBC patient-derived xenografts (PDOX); set-up: species or system human tumor in BALB/c nude mice; details: Rb-proficient TNBC PDOX, nude mice
# Description: All animal experiments were approved by the IACUC of the Beth Israel Deaconess Medical Center. Triple-negative BC patient-derived xenograft (TM00096) was purchased from Jackson Laboratories. Pieces from PDOX tumors were subcutaneously implanted into flank of 6-week-old BALB/c female nude mice. Tumor sizes were measured every three days by caliper after implantation and tumor volume was calculated by the modified ellipsoidal formula: tumor volume=½length×width^2. Treatments were started once the tumors reached 5 mm in diameter and continued until tumors reached 15 mm in any direction. […] Sulfopin treatment was given by intraperitoneal injection with a dosage of 40 mg/kg (dissolved solution: 5% DMSO in D5W, 7 days/week), palbociclib treatment was given by oral gavage with a dosage of 100 mg/kg (dissolved solution: saline, 5 days/week), abemaciclib treatment was given by oral gavage with a dosage of 100 mg/kg (dissolved solution: 0.5% CMC-Na, 5 days/week), or drug combinations in which each compound was administered at the same dose and scheduled as a single agent. […]
# PDOX tumor tissue sections were boiled in 10 mM sodium citrate (pH 6.0), for antigen retrieval after deparaffinization. […] Slides were scanned at least three different representative areas at 20× magnification using BZ-X800 fluorescence microscope (KEYENCE).
# [8] = system: Cdh1 binding to Pin1 WW and PPIase domains; assay: GST-Pin1 pull-down of HA-Cdh1 after sulfopin treatment; assay type: cell-based, human; details: MCF-7 cells expressing HA-Cdh1, sulfopin 3 days, 10 μM MG132 last 12 hrs
# Description: GST pull-down was performed as described previously (Lee et al., Mol Cell 2011; 42:147-59). Briefly, cells were stably expressing indicated proteins and lysed in pull-down buffer (20 mM Tris pH 8.0, 150 mM NaCl, 1 mM EDTA pH 8.0, 0.5% Nonidet-P40). The cell extracts were pre-cleared by glutathione agarose beads and incubated with 1 μM GST or GST fusion proteins overnight at 4° C. Protein complexes were recovered on glutathione agarose beads for 2 hours at 4° C., washed four to six times with pull-down buffer and eluted by boiling in SDS-containing sample buffer. Bound proteins were resolved by SDS-PAGE.
# To further define the molecular mechanism of Cdh1-mediated Pin1 degradation, the interaction of Pin1 and Cdh1 was examined using GST pull-down assays using GST-Pin1 point mutations. IB analysis of GST pull-down precipitates derived from 293T cells transfected with HA-Cdh1 and GST-Pin1 mutants as indicated for 36 hrs. The graphs were one representative experiment out of three independent experiments. […] FIG. 1K and FIG. 1L show the shift of Cdh1 binding from the WW− to the PPIase domain of Pin1 upon inhibition of PPIase activity. […] Bottom graphs quantification of IB analysis for bound HA-Cdh1. […]
compound,measurement,setting,value
CC(=O)c1c(C)c2cnc(Nc3ccc(N4CCNCC4)cn3)nc2n(C2CCCC2)c1=O [palbociclib],median survival,[1],21 days
CC(C)C[C@@H](C=O)NC(=O)[C@H](CC(C)C)NC(=O)[C@H](CC(C)C)NC(=O)OCc1ccccc1 [MG132] (Cbz-Leu-Leu-Leu-aldehyde),Pin1 inhibitor-induced Pin1 degradation,Pin1 in MDA-MB-231 cells,rescued
CC(C)C[C@H](NC(=O)[C@H](Cc1ccccc1)NC(=O)c1cnccn1)B(O)O [bortezomib],Pin1 inhibitor-induced Pin1 degradation,Pin1 in MDA-MB-231 cells,rescued
CCN1CCN(Cc2ccc(Nc3ncc(F)c(-c4cc(F)c5nc(C)n(C(C)C)c5c4)n3)nc2)CC1 [abemaciclib],median survival,[2],31 days
same,median survival,[3],25 days
same,median survival,[4],31.5 days
CN(C)C(=O)c1cc2cnc(Nc3ccc(N4CCNCC4)cn3)nc2n1C1CCCC1 [ribociclib],single agent activity in TNBC,TNBC,neither palbociclib nor ribociclib has activity in TNBC
"Cdh1-pS163: Cdh1 residues 161-183 with phosphorylated Ser163 and isotope labeled Pro164 (SEQ ID NO: 27) (LR[pS][Pro(13C,15N)]RKPTRKISKIPFKVLDAPE)",binding to the Pin1 WW domain,Pin1 [5],moderately strong affinity
same,cis-P164 isomer population,"Pin1 [6]; 1:4 complex with Pin1, 25° C.",14.2%
same,cis-P164 isomer population,"Pin1 [6]; free peptide, 58 μM, 25° C.",7%
CC(C)(C)CN(C(=O)CCl)C1CCS(=O)(=O)C1 (centres unmarked) [sulfopin],S/G2 duration,MCF-7 cells,strikingly prolonged S/G2 phases
same,tumor growth,[7],limited single agent activity
same,median survival,[2],22.5 days
same,median survival,[3],25 days
same,binding mode of Cdh1 to Pin1,[8],shift from binding to the WW domain to the PPIase domain
same,median survival,[1],21 days
same,median survival,[4],27 days
